The record followed here is ChEMBL document CHEMBL3045728, “Synthesis, physico-chemical properties, and antimicrobial evaluation of a new series of iron(III) hexadentate chelators” (Med Chem Res, 2013).

In brackets after ≈: the same amount, converted by molar mass.

Series [1] is described as follows: Iron chelating activity of the compound assessed as stability constant of Fe3+-compound complex. Type of series: physicochemical.
The subject of a further series is Bacillus subtilis. In words: Antimicrobial activity against Bacillus subtilis assessed as growth inhibition incubated for 2 hr measured after 24 hr by turbidity based assay. Type of series: functional.
Another series deals with Bacillus cereus. In words: Antimicrobial activity against Bacillus cereus assessed as growth inhibition incubated for 2 hr measured after 24 hr by turbidity based assay. The class given is functional.
A further series has as its system Staphylococcus aureus. In words: Antimicrobial activity against Staphylococcus aureus assessed as growth inhibition incubated for 2 hr measured after 24 hr by turbidity based assay. The class given is functional.
The test system of another series is Pseudomonas aeruginosa. In words: Antimicrobial activity against Pseudomonas aeruginosa assessed as growth inhibition incubated for 2 hr measured after 24 hr by turbidity based assay. Type of series: functional.
Series [2] can be described thus: Iron chelating activity of the compound assessed as stability constant of Fe3+-compound complex after 5 min by spectrophotometric titration analysis. The class given is physicochemical.
For another series, the system named is Escherichia coli. In words: Antimicrobial activity against Escherichia coli assessed as growth inhibition incubated for 2 hr measured after 24 hr by turbidity based assay. The class given is functional.

As for `O=C(O)C(NCCNC(C(=O)O)c1ccccc1O)c1ccccc1O` (centres undefined), the “log K” value in series [1] stood at 34.

`O=C(NCCN(CCNC(=O)c1[nH]ccc(=O)c1O)CCNC(=O)c1[nH]ccc(=O)c1O)c1[nH]ccc(=O)c1O`: the minimal inhibitory concentration (MIC) in the series with Bacillus subtilis stood at 40 µg/mL (≈ 71.7 µM); in the series on Bacillus cereus, 40 µg/mL (≈ 71.7 µM); in the series on Staphylococcus aureus, 40 µg/mL (≈ 71.7 µM); with Pseudomonas aeruginosa it was 24 µg/mL (≈ 43 µM); with Escherichia coli, 80 µg/mL (≈ 143 µM). For the same molecule, in series [2], the “log K” value is given as 30.7.

`O=C(NCCN(CCNC(=O)c1c(O)c(=O)ccn1CCOCCO)CCNC(=O)c1c(O)c(=O)ccn1CCOCCO)c1c(O)c(=O)ccn1CCOCCO`: the MIC with Bacillus subtilis, with Bacillus cereus, in the series with Staphylococcus aureus, in the series on Pseudomonas aeruginosa and in the series on Escherichia coli was 40 µg/mL (≈ 48.7 µM) throughout. Also, the “log K” value in series [2] was 32.

Turning to `COCCn1ccc(=O)c(O)c1C(=O)NCCN(CCNC(=O)c1c(O)c(=O)ccn1CCOC)CCNC(=O)c1c(O)c(=O)ccn1CCOC`, the MIC with Bacillus subtilis worked out at 40 µg/mL (≈ 54.7 µM); in the series with Bacillus cereus it was 80 µg/mL (≈ 109 µM); in the series with Staphylococcus aureus, 80 µg/mL (≈ 109 µM); in the series with Pseudomonas aeruginosa, 16 µg/mL (≈ 21.9 µM); with Escherichia coli, 16 µg/mL (≈ 21.9 µM). For the same molecule, the “log K” value in series [2] is 32.3.

Turning to `O=C(NCCN(CCNC(=O)c1c(O)c(=O)ccn1CCO)CCNC(=O)c1c(O)c(=O)ccn1CCO)c1c(O)c(=O)ccn1CCO`, the MIC was found to be 40 µg/mL (≈ 58 µM) in the series with Bacillus subtilis; 40 µg/mL (≈ 58 µM) with Bacillus cereus; 80 µg/mL (≈ 116 µM) with Staphylococcus aureus; 40 µg/mL (≈ 58 µM) in the series on Pseudomonas aeruginosa; 40 µg/mL (≈ 58 µM) with Escherichia coli.

In the case of `CCCCCCn1ccc(=O)c(O)c1C(=O)NCCN(CCNC(=O)c1c(O)c(=O)ccn1CCCCCC)CCNC(=O)c1c(O)c(=O)ccn1CCCCCC`, the MIC in the series on Bacillus subtilis is 40 µg/mL (≈ 49.4 µM); with Bacillus cereus it was 40 µg/mL (≈ 49.4 µM); in the series on Staphylococcus aureus it was 40 µg/mL (≈ 49.4 µM); in the series with Pseudomonas aeruginosa, 40 µg/mL (≈ 49.4 µM); in the series on Escherichia coli it was 80 µg/mL (≈ 98.8 µM).

In the case of `CCCCn1ccc(=O)c(O)c1C(=O)NCCN(CCNC(=O)c1c(O)c(=O)ccn1CCCC)CCNC(=O)c1c(O)c(=O)ccn1CCCC`, the MIC was 80 µg/mL (≈ 110 µM) with Bacillus subtilis; 80 µg/mL (≈ 110 µM) with Bacillus cereus; 80 µg/mL (≈ 110 µM) with Staphylococcus aureus; 40 µg/mL (≈ 55.1 µM) in the series with Pseudomonas aeruginosa; 40 µg/mL (≈ 55.1 µM) in the series on Escherichia coli.

For `CCn1ccc(=O)c(O)c1C(=O)NCCN(CCNC(=O)c1c(O)c(=O)ccn1CC)CCNC(=O)c1c(O)c(=O)ccn1CC`, the MIC in the series with Bacillus subtilis came to 40 µg/mL (≈ 62.3 µM); with Bacillus cereus, 40 µg/mL (≈ 62.3 µM); in the series on Staphylococcus aureus it was 40 µg/mL (≈ 62.3 µM); with Pseudomonas aeruginosa it was 16 µg/mL (≈ 24.9 µM); with Escherichia coli, 24 µg/mL (≈ 37.4 µM). For the same molecule, the “log K” value in series [2] is recorded as 32.6.

As to `Cn1ccc(=O)c(O)c1C(=O)NCCN(CCNC(=O)c1c(O)c(=O)ccn1C)CCNC(=O)c1c(O)c(=O)ccn1C`, the minimal inhibitory concentration (MIC) was determined as 40 µg/mL (≈ 66.7 µM) with Bacillus subtilis; 40 µg/mL (≈ 66.7 µM) with Bacillus cereus; 40 µg/mL (≈ 66.7 µM) with Staphylococcus aureus; 24 µg/mL (≈ 40 µM) in the series on Pseudomonas aeruginosa; 24 µg/mL (≈ 40 µM) in the series with Escherichia coli. Further, the “log K” value in series [2] came to 32.1.

`O=C(O)CN(CCN(CC(=O)O)Cc1ccccc1O)Cc1ccccc1O`: the “log K” value in series [1] is 40.

Regarding `CC(=O)N(O)CCCCCNC(=O)CCC(=O)N(O)CCCCCNC(=O)CCC(=O)N(O)CCCCCN` [DEFEROXAMINE], in series [1], the “log K” value was 30.4.

As to `O=C(O)CN(CCN(CC(=O)O)CC(=O)O)CCN(CC(=O)O)CC(=O)O` [PENTETIC ACID], the MIC with Bacillus subtilis stood at 80 µg/mL (≈ 203 µM); with Bacillus cereus, 80 µg/mL (≈ 203 µM); in the series on Staphylococcus aureus, 40 µg/mL (≈ 102 µM); in the series on Pseudomonas aeruginosa, 80 µg/mL (≈ 203 µM); in the series with Escherichia coli, 80 µg/mL (≈ 203 µM). Also, in series [1], the “log K” value was determined as 28.6.
